Key:
BTK (C481S) = target: T1, BTK (C481S) (Homo sapiens, UniProt Q06187, C481S); test: Kinase assay of BTK (C481S), [33P]-ATP filter-binding, Reaction Biology Corporation; format: biochemical; conditions: 6 nM BTK (C481S), 0.2 mg/ml pEY substrate, 10 μM ATP, 20 min preincubation, 120 min reaction at room temperature
T1 construct: purchased SignalChem B10-12CH
Experimental: The kinase activity of BTK (C481S) was assayed at Reaction Biology Corporation. The substrate in the BTK (C481S) reaction, pEY (poly[Glu:Tyr] (4:1)) (Sigma, Cat. #P7244-250MG), was prepared in fresh reaction buffer (20 mM Hepes (pH 7.5), 10 mM MgCl2, 1 mM EGTA, 0.02% Brij35, 0.02 mg/mi BSA, 0.1 mM Na3VO4, 2 mM DTT, 1% DMSO). BTK(C481S) (SignalChem, Cat. #B10-12CH) was delivered into the substrate solution and mixed gently. The final concentrations of BTK (C481S) and the substrate in the reaction mixture were 6 nM and 0.2 mg/ml, respectively. Compounds were tested in 10-point concentration/response mode with 3-fold serial dilution steps starting at 1 μM.
Compounds in 100% DMSO were delivered into the kinase reaction mixture by acoustic liquid delivery technology (Echo550; nanoliter range) and incubated for 20 min at room temperature. 10 μM [^33P]-ATP (ATP: Sigma, Cat #: A7699; [^33P]-ATP: Hartmann Analytic, Cat #: SCF-301-12) was delivered into the reaction mixture to initiate the reaction. The mixture was incubated for 120 min at room temperature. Radioactivity was detected utilizing a proprietary filter-binding method. Kinase activity data were expressed as the percent remaining kinase activity in test samples compared to vehicle (DMSO) reactions. IC50 values were obtained using GraphPad Prism software.
Select compounds prepared as described above were assayed according to the biological procedures described herein.

OCI-LY10 cells = test: Cell proliferation assay (MTS) in OCI-LY10 cells; format: cell-based; conditions: Homo sapiens; inhibition of OCI-LY10 cells proliferation, 72 h incubation, MTS, absorbance at 490 nm; read-out: OCI-LY10 IC50
Method in brief: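 BTK-dependent OCI-LY10 proliferation: cells seeded at 10000/well, preincubated 4 h, then compound exposure 72 h at 37° C., 5% CO2. MTS added for 2 h and absorbance read at 490 nm; IC50 derived from the concentration-response.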

T1 sequence (Q06187 whole entry C481S): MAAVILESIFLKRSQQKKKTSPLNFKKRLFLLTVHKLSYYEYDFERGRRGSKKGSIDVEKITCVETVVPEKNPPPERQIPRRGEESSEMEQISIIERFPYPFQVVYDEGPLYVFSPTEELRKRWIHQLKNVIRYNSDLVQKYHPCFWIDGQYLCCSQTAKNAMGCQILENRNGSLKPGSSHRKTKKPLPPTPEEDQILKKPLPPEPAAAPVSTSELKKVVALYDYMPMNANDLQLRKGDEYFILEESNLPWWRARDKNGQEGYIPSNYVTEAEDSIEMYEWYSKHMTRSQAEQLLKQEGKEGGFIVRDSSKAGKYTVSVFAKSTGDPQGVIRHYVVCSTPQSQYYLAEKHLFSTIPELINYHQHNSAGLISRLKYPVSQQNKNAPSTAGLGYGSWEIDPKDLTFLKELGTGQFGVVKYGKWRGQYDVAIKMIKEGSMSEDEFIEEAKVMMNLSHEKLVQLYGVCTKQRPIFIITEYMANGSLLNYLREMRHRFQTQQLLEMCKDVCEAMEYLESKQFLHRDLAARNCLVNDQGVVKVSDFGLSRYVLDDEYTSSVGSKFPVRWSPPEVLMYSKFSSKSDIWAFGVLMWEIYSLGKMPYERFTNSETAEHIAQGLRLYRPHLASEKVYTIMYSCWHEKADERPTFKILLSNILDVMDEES

IC50 (BTK (C481S))	IC50 (OCI-LY10 cells)	Structure (SMILES)
6.5 nM	69 nM	COc1ccccc1C(=O)NCc1ccc(-c2cn(C3CCCC3)c3c(=O)[nH]nc(N)c23)cc1 [Example 4, N-(4-(4-amino-1-cyclopentyl-7-oxo-6,7-dihydro-1H-pyrrolo[2,3-d]pyridazin-3-yl)benzyl)-2-methoxybenzamide]
7.8 nM	–	COc1ccccc1C(=O)NCc1ccc(-c2nc(C3CCCC3)n3ncnc(N)c23)cc1 [Example 6, N-(4-(4-amino-7-cyclopentylimidazo[5,1-f][1,2,4]triazin-5-yl)benzyl)-2-methoxybenzamide]
5 nM	28 nM	COc1ccccc1C(=O)NCc1ccc(-n2cc(C3CCCC3)c3c(=O)[nH]nc(N)c32)cc1 [Example 1, N-(4-(7-amino-3-cyclopentyl-4-oxo-4,5-dihydro-1H-pyrrolo[2,3-d]pyridazin-1-yl)benzyl)-2-methoxybenzamide]
8 nM	68 nM	COc1ccccc1C(=O)NCc1ccc(-c2nn(C3CCCC3)c3c(=O)[nH]nc(N)c23)cc1 [Example 5, N-(4-(4-amino-1-cyclopentyl-7-oxo-6,7-dihydro-1H-pyrazolo[3,4-d]pyridazin-3-yl)benzyl)-2-methoxybenzamide]
0.5 nM	1 nM	COc1ccc(F)cc1C(=O)NCc1ccc(-c2nn(C3CCCC3)c3c(=O)[nH]nc(N)c23)cc1 [Example 11, N-(4-(4-amino-1-cyclopentyl-7-oxo-6,7-dihydro-1H-pyrazolo[3,4-d]pyridazin-3-yl)benzyl)-5-fluoro-2-methoxybenzamide]
3 nM	–	COc1ccccc1C(=O)NCc1ccc(-c2nc(C3CCCC3)n3ccnc(N)c23)cc1 [Example 7, N-(4-(8-amino-3-cyclopentylimidazo[1,5-a]pyrazin-1-yl)benzyl)-2-methoxybenzamide]
–	18 nM	COc1ccc(F)cc1C(=O)NCc1ccc(-c2nn(C(C)(C)C(F)F)c3c(=O)[nH]nc(N)c23)cc1 [Example 85, N-(4-(4-amino-1-(1,1-difluoro-2-methylpropan-2-yl)-7-oxo-6,7-dihydro-1H-pyrazolo[3,4-d]pyridazin-3-yl)benzyl)-5-fluoro-2-methoxybenzamide]
0.45 nM	1 nM	COc1ccc(F)cc1C(=O)NCc1ccc(-n2cc(C3CCCC3)c3c(=O)[nH]nc(N)c32)cc1 [Example 8, N-(4-(7-amino-3-cyclopentyl-4-oxo-4,5-dihydro-1H-pyrrolo[2,3-d]pyridazin-1-yl)benzyl)-5-fluoro-2-methoxybenzamide]
–	1 nM	C=CC(=O)N1CC[C@@H](n2cc(-c3ccc(CNC(=O)c4cc(F)ccc4OC)cc3)c3c(N)n[nH]c(=O)c32)C1 [Example 109, (R)-N-(4-(1-(1-acryloylpyrrolidin-3-yl)-4-amino-7-oxo-6,7-dihydro-1H-pyrrolo [2,3-d]pyridazin-3-yl)benzyl)-5-fluoro-2-methoxybenzamide]
0.5 nM	1 nM	COc1ccc(F)cc1C(=O)NCc1ccc(-c2cn(C3CCCC3)c3c(=O)[nH]nc(N)c23)cc1 [Example 17, N-(4-(4-amino-1-cyclopentyl-7-oxo-6,7-dihydro-1H-pyrrolo[2,3-d]pyridazin-3-yl)benzyl)-5-fluoro-2-methoxybenzamide]
–	1 nM	COc1ccc(F)cc1C(=O)NCc1ccc(-c2nn(C3(C)CCC3)c3c(=O)[nH]nc(N)c23)cc1 [Example 73, N-(4-(4-amino-1-(1-methylcyclobutyl)-7-oxo-6,7-dihydro-1H-pyrazolo[3,4-d]pyridazin-3-yl)benzyl)-5-fluoro-2-methoxybenzamide]
–	9 nM	COc1ccc(F)cc1C(=O)NCc1ccc(-c2cn(C3CCOCC3)c3c(=O)[nH]nc(N)c23)cc1 [Example 37, N-(4-(4-amino-7-oxo-1-(tetrahydro-2H-pyran-4-yl)-6,7-dihydro-1H-pyrrolo [2,3-d]pyridazin-3-yl)benzyl)-5-fluoro-2-methoxybenzamide]
–	1 nM	COc1ccc(F)cc1C(=O)NCc1ccc(-c2nn(C3(C)CC3)c3c(=O)[nH]nc(N)c23)cc1 [Example 74, N-(4-(4-amino-1-(1-methylcyclopropyl)-7-oxo-6,7-dihydro-1H-pyrazolo[3,4-d]pyridazin-3-yl)benzyl)-5-fluoro-2-methoxybenzamide]
–	2 nM	COc1ccc(F)cc1C(=O)NCc1ccc(-c2nc(C3CCCC3)n3ccnc(N)c23)cc1 [Example 13, N-(4-(8-amino-3-cyclopentylimidazo [l,5-a]pyrazin-1-yl)benzyl)-5-fluoro-2-methoxybenzamide]
0.91 nM	1 nM	COc1ccc(F)cc1C(=O)NCc1ccc(-c2nn([C@H]3CCC[C@H]3F)c3c(=O)[nH]nc(N)c23)cc1 [Example 81, N-(4-(4-amino-1-((1S,2R)-2-fluorocyclopentyl)-7-oxo-6,7-dihydro-1H-pyrazolo[3,4-d]pyridazin-3-yl)benzyl)-5-fluoro-2-methoxybenzamide]
–	12 nM	COc1ccc(F)cc1C(=O)NCc1ccc(-c2nn(C(C)CF)c3c(=O)[nH]nc(N)c23)cc1 (stereo not shown) [Example 75, N-(4-(4-amino-1-(1-fluoropropan-2-yl)-7-oxo-6,7-dihydro-1H-pyrazolo[3,4-d]pyridazin-3-yl)benzyl)-5-fluoro-2-methoxybenzamide]
3.3 nM	34 nM	COc1ccccc1C(=O)NCc1ccc(-n2nc(C3CCCC3)c3c(=O)[nH]nc(N)c32)cc1 [Example 2, N-(4-(7-amino-3-cyclopentyl-4-oxo-4,5-dihydro-1H-pyrazolo[3,4-d]pyridazin-1-yl)benzyl)-2-methoxybenzamide]

Reference: patent publication US20230145305A1, “COMPOUNDS USEFUL AS KINASE INHIBITORS” (Fochon Biosciences, Ltd., priority 2020, published 2023)
